Source: ChEMBL document CHEMBL1130649, “Rational design of a new series of mixed anti-HIV pronucleotides” (Bioorg Med Chem Lett, 1998)

Key:
[1] = Half-life in RPMI 1640 containing 10% heat inactivated fetal calf serum culture medium at step 1; type: ADME, Bos taurus; conditions: cattle
[2] = Half-life in total CEM cell extract at Step 1; type: ADME, CCRF-CEM; conditions: human
[3] = tested on: CCRF-CEM; test: Compound was tested for cytotoxicity against HIV-1 in CEM/TK- cells; type: functional; conditions: Homo sapiens
[4] = tested on: CCRF-CEM; test: Compound was tested for inhibitory activity against HIV-1 replication in CEM/TK- cells; type: functional, cell-based; conditions: Homo sapiens
[5] = tested on: CEM-SS; test: Compound was tested for inhibitory activity against HIV-1 replication in CEM-SS cells; type: functional, cell-based; conditions: Homo sapiens
[6] = tested on: CEM-SS; test: Compound was tested for cytotoxicity against HIV-1 in CEM-SS cells; type: functional; conditions: Homo sapiens

SMILES	half-life [1] [h]	half-life [2] [h]	CC50 [3] [µM]	IC50 [4] [µM]	IC50 [5] [µM]	CC50 [6] [µM]
Cc1cn([C@H]2C[C@H](N=[N+]=[N-])[C@@H](COP(=O)(OCCSC(=O)C(C)(C)C)Oc3ccc(CC(N)C(=O)O)cc3)O2)c(=O)[nH]c1=O.Cl (stereo partly specified)	86.4	1.4	90	29	0.006	> 90
Cc1cn([C@H]2C[C@H](N=[N+]=[N-])[C@@H](COP(=O)(OCCSC(=O)C(C)(C)C)Oc3ccccc3)O2)c(=O)[nH]c1=O (stereo partly specified)	72	1.2	> 10	3.5	0.001	> 10
Cc1cn([C@H]2C[C@H](N=[N+]=[N-])[C@@H](CO)O2)c(=O)[nH]c1=O [ZIDOVUDINE]			> 100	> 100	0.006	> 100
